Laboratory results: patent US7432276B2, “ABCA1 elevating compounds” (CV Therapeutics, Inc., priority 2005, dated 2008)

Tested on: ABCA1 mRNA
Test: ABCA1 mRNA induction in THP-1 cells, QuantiGene branched DNA assay
Type: cell-based
Conditions: 10 μM test compound, 18-20 hours; for fold induction at 10 µM: Homo sapiens, read-out: ABCA1 Induction Fold Increase over DMSO Vehicle
Method in brief: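 THP-1 cells, grown to subconfluence, treated with compounds at 10 and 3 μM in DMEM/BSA for 18–20 h. Lysates hybridized with ABCA1-specific probe 16–18 h at 53 °C; QuantiGene branched DNA luminescence gives fold increase over DMSO.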

SMILES	ABCA1 Induction Fold Increase over DMSO Vehicle [FOLD INCREASE]	fold induction at 10 µM
CC(C)=CCOC(=O)c1ccc2c(c1)OCC1C2Nc2ccc(CB(O)O)cc2C1(C)C (stereo not shown) [Number 11, 3-methylbut-2-enyl 9-(dihydroxyboramethyl)-7,7-dimethyl-7,12,12a,6a-tetrahydrochromano[4,3-b]quinoline-3-carboxylate]	1.7	–
COC(=O)CCc1ccc2c(c1)C1Nc3ccc(C(O)(C(F)(F)F)C(F)(F)F)cc3C(C)(C)C1CO2 (stereo not shown) [Number 40, methyl 3-{7,7-dimethyl-9-[2,2,2-trifluoro-1-hydroxy-1-(trifluoromethyl)ethyl]-7,12,12a,6a-tetrahydrochromano[4,3-b]quinolin-2-yl}propanoate]	2.1	–
CC1(C)c2cc(C(O)(C(F)(F)F)C(F)(F)F)ccc2NC2c3cccc(F)c3OCC21 (stereo not shown) [Number 51, 1,1,1,3,3,3-hexafluoro-2-(4-fluoro-7,7-dimethyl(7,12,12a,6a-tetrahydrochromano[4,3-b]quinolin-9-yl))propan-2-ol]	7.8	–
COc1cccc2c1C1Nc3ccc(C(C)(C)C)cc3C(C)(C)C1CO2 (stereo not shown) [Number 88, 9-(tert-butyl)-1-methoxy-7,7-dimethyl-7,12,12a,6a-tetrahydrochromano[4,3-b]quinoline]	6.8	–
COc1cccc2c1OC[C@@H]1[C@H]2Nc2ccccc2C1(C)C [Number 37, (6aS,12aR)-4-methoxy-7,7-dimethyl-7,12,12a,6a-tetrahydrochromano[4,3-b]quinoline]	8.3	–
CCOc1ccc2c(c1)C(C)(C)[C@H]1COc3cccc(OC)c3[C@H]1N2 [Number 56, (12aS,6aR)-9-ethoxy-1-methoxy-7,7-dimethyl-7,12,12a,6a-tetrahydrochromano[4,3-b]quinoline]	4.8	–
COc1cccc2c1OCC1C2Nc2ccc(-c3cccc(C(=O)OC(C)C)c3)cc2C1(C)C (stereo not shown) [Number 60, methylethyl 3-(4-methoxy-7,7-dimethyl-7,12,12a,6a-tetrahydrochromano[4,3-b]quinolin-9-yl)benzoate]	4.4	–
CC1(C)c2cc(C(O)(C(F)(F)F)C(F)(F)F)ccc2NC2c3cc(Cl)cc(Cl)c3OCC21 (stereo not shown) [Number 68, 2-(2,4-dichloro-7,7-dimethyl(7,12,12a,6a-tetrahydrochromano[4,3-b]quinolin-9-yl))-1,1,1,3,3,3-hexafluoropropan-2-ol]	2.7	–
Cc1cc(Cl)cc2c1OCC1C2Nc2ccc(C(O)(C(F)(F)F)C(F)(F)F)cc2C1(C)C (stereo not shown) [Number 69, 2-(2-chloro-4,7,7-trimethyl(7,12,12a,6a-tetrahydrochromano[4,3-b]quinolin-9-yl))-1,1,1,3,3,3-hexafluoropropan-2-ol]	2.6	–
CC1(C)c2cc(C(O)(C(F)(F)F)C(F)(F)F)ccc2NC2c3cc(F)cc(F)c3OCC21 (stereo not shown) [Number 67, 2-(2,4-difluoro-7,7-dimethyl(7,12,12a,6a-tetrahydrochromano[4,3-b]quinolin-9-yl))-1,1,1,3,3,3-hexafluoropropan-2-ol]	3.3	–
COc1cccc2c1C1Nc3ccc(C(F)(F)F)cc3C(C)(C)C1CO2 (stereo not shown) [Number 44, 1-methoxy-7,7-dimethyl-9-(trifluoromethyl)-7,12,12a,6a-tetrahydrochromano[4,3-b]quinoline]	2.2	–
COc1ccccc1-c1ccc2c(c1)C(C)(C)C1COc3c(OC)cc(Cl)cc3C1N2 (stereo not shown) [Number 100, 1-(2-chloro-4-methoxy-7,7-dimethyl(7,12,12a,6a-tetrahydrochromano[4,3-b]quinolin-9-yl))-2-methoxybenzene]	3.0	–
COc1cccc2c1[C@H]1Nc3ccc(-c4cnco4)cc3C(C)(C)[C@H]1CO2 [Number 62, (12aS,6aR)-1-methoxy-7,7-dimethyl-9-(1,3-oxazol-5-yl)-7,12,12a,6a-tetrahydrochromano[4,3-b]quinoline]	10.6	–
CC(C)Oc1ccc2c(c1)C(C)(C)C1COc3c(F)cccc3C1N2 (stereo not shown) [Number 102, 4-fluoro-7,7-dimethyl-9-(methylethoxy)-7,12,12a,6a-tetrahydrochromano[4,3-b]quinoline]	4.2	–
COC(=O)CCN1c2ccccc2C(C)(C)[C@H]2COc3cccc(OC)c3[C@@H]21 [Number 171, methyl 3-((6aR,12aR)-6a,7-dihydro-1-methoxy-7,7-dimethyl-6H-chromeno[4,3-b]quinolin-12(12aH)-yl)propanoate]	–	2.2
COC(=O)c1cc2c(cc1OC)NC1c3cc(Br)ccc3OCC1C2(C)C (stereo not shown) [Number 6, methyl 2-bromo-10-methoxy-7,7-dimethyl-7,12,12a,6a-tetrahydrochromano[4,3-b]quinoline-9-carboxylate]	1.6	–

SMILES	ABCA1 Induction Fold Increase over DMSO Vehicle [FOLD INCREASE]	fold induction at 10 µM
COc1cccc2c1[C@H]1Nc3ccc(C(=O)N4CCNCC4)cc3C(C)(C)[C@H]1CO2 [Number 127, ((6aR,12aS)-6a,7,12,12a-tetrahydro-1-methoxy-7,7-dimethyl-6H-chromeno[4,3-b]quinolin-9-yl)(piperazin-1-yl)methanone]	–	5.1
CCS(=O)(=O)N1CCN(C(=O)c2ccc3c(c2)C(C)(C)[C@H]2COc4cccc(OC)c4[C@H]2N3)CC1 [Number 132, ((6aR,12aS)-1-methoxy-6a,7,12,12a-tetrahydro-7,7-dimethyl-6H-chromeno[4,3-b]quinolin-9-yl)(4-ethanesulfonylpiperazin-1-yl)methanone]	–	4.3
COc1cc(Br)cc2c1OC[C@H]1[C@@H]2Nc2ccc(-c3nnn[nH]3)cc2C1(C)C [Number 164, (6aR,12aS)-2-bromo-6a,7,12,12a-tetrahydro-4-methoxy-7,7-dimethyl-9-(1H-tetrazol-5-yl)-6H-chromeno[4,3-b]quinoline]	–	5.6
CC1(C)c2cc(C(O)(C(F)(F)F)C(F)(F)F)ccc2N[C@H]2c3cc(Br)ccc3OC[C@H]21 [Number 2, 2-((6aS,12aR)-2-bromo-7,7-dimethyl(7,12,12a,6a-tetrahydrochromano[4,3-b]quinolin-9-yl))-1,1,1,3,3,3-hexafluoropropan-2-ol]	5.1	–
COc1cccc2c1[C@H]1Nc3ccc(-n4cc(C(=O)O)cn4)cc3C(C)(C)[C@H]1CO2 [Number 136, 1-((6aR,12aS)-6a,7,12,12a-tetrahydro-1-methoxy-7,7-dimethyl-6H-chromeno[4,3-b]quinolin-9-yl)-1H-pyrazole-4-carboxylic acid]	–	4.1
CCS(=O)(=O)N1CCN(C(=O)c2cnn(-c3ccc4c(c3)C(C)(C)[C@H]3COc5cccc(OC)c5[C@H]3N4)c2C)CC1 [Number 140, 1-((6aR,12aS)-6a,7,12,12a-tetrahydro-1-methoxy-7,7-dimethyl-6H-chromeno[4,3-b]quinolin-9-yl)-5-methyl-1H-pyrazole-4-((4-ethanesulfonylpiperazin-1-yl)methanone)]	5.1	–
CCOC(=O)CN1c2ccccc2C(C)(C)[C@H]2COc3cccc(OC)c3[C@H]21 [Number 157, ethyl 2-((6aR,12aS)-6a,7-dihydro-1-methoxy-7,7-dimethyl-6H-chromeno[4,3-b]quinolin-12(12aH)-yl)acetate]	–	3.3
COc1cc(-c2cn[nH]c2)cc2c1OC[C@H]1[C@@H]2Nc2ccc(-c3cnco3)cc2C1(C)C [Number 159, (6aR,12aS)-6a,7,12,12a-tetrahydro-4-methoxy-7,7-dimethyl-9-(oxazol-5-yl)-2-(1H-pyrazol-4-yl)-6H-chromeno[4,3-b]quinoline]	–	7.6
COc1cccc2c1[C@H]1Nc3ccc(-c4nc(C(=O)N5CCS(=O)(=O)CC5)co4)cc3C(C)(C)[C@H]1CO2 [Number 148, 2-((6aR,12aS)-1-methoxy-6a,7,12,12a-tetrahydro-7,7-dimethyl-6H-chromeno[4,3-b]quinolin-9-yl)oxazole-(4-(1,1-dione-1,4-thiazaperhydroin-yl)methanone)]	11	–
COc1cccc2c1[C@H]1Nc3ccc(C(=O)N(C)C)cc3C(C)(C)[C@H]1CO2 [Number 123, (6aR,12aS)-6a,7,12,12a-tetrahydro-1-methoxy-N,N,7,7-tetramethyl-6H-chromeno[4,3-b]quinoline-9-carboxamide]	–	6.5
COc1cccc2c1[C@H]1Nc3ccc(N4CCS(=O)(=O)CC4)cc3C(C)(C)[C@H]1CO2 [Number 72, 4-((12aS,6aR)-1-methoxy-7,7-dimethyl-7,12,12a,6a-tetrahydrochromano[4,3-b]quinolin-9-yl)-1,4-thiazaperhydroine-1,1-dione]	8.4	–
COc1cccc2c1OC[C@H]1[C@@H]2Nc2ccc(C(=O)N3CCOCC3)cc2C1(C)C [Number 119, ((6aR,12aS)-6a,7,12,12a-tetrahydro-4-methoxy-7,7-dimethyl-6H-chromeno[4,3-b]quinolin-9-yl)(morpholino)methanone]	–	7.5
COC(=O)CCN1c2ccccc2C(C)(C)[C@@H]2COc3cccc(OC)c3[C@@H]21 [Number 170, methyl 3-((6aS,12aR)-6a,7-dihydro-1-methoxy-7,7-dimethyl-6H-chromeno[4,3-b]quinolin-12(12aH)-yl)propanoate]	–	2.3
COc1cccc2c1OC[C@@H]1[C@@H]2Nc2ccc(Br)cc2C1(C)C [Number 87, (12aS,6aS)-9-bromo-4-methoxy-7,7-dimethyl-7,12,12a,6a-tetrahydrochromano[4,3-b]quinoline]	7.4	–
COc1cccc2c1OC[C@@H]1[C@@H]2Nc2ccccc2C1(C)C [Number 38, (12aS,6aS)-4-methoxy-7,7-dimethyl-7,12,12a,6a-tetrahydrochromano[4,3-b]quinoline]	7.0	–
